Measurements from US7601738B2, “Excitatory amino acid receptor antagonists” (Eli Lilly and Company, priority 2001, dated 2009).

Compound	melting point
Cl.O=C(O)c1cc2ccccc2cc1S[C@H]1CC[C@H]2CN[C@H](C(=O)O)C[C@H]2C1	> 183 °C (dec.)
Cc1ccc(C(=O)O)c(S[C@H]2CC[C@H]3CN[C@H](C(=O)O)C[C@H]3C2)c1.Cl	> 177 °C (dec.)
